Patent US5153223A, “Biurets, aminocarbonyl carbamates, and aminocarbonyl thiocarbamates useful as ACAT inhibitors” (priority 1991, dated 1992)
pIC50: −log10 of the molar value.

target: T1, acyl-CoA: cholesterol acyltransferase (ACAT) (Oryctolagus cuniculus, UniProt G1SFD9); assay: In vitro ACAT inhibition (IAI): radiolabeled cholesterol oleate formed from radiolabeled oleic acid in rabbit intestinal microsomes; type: biochemical; conditions: not given
T1 construct: tissue preparation containing rabbit intestinal microsomes; from tissue; host or cells: rabbit intestinal microsomes
T1 sequence (G1SFD9 1-524): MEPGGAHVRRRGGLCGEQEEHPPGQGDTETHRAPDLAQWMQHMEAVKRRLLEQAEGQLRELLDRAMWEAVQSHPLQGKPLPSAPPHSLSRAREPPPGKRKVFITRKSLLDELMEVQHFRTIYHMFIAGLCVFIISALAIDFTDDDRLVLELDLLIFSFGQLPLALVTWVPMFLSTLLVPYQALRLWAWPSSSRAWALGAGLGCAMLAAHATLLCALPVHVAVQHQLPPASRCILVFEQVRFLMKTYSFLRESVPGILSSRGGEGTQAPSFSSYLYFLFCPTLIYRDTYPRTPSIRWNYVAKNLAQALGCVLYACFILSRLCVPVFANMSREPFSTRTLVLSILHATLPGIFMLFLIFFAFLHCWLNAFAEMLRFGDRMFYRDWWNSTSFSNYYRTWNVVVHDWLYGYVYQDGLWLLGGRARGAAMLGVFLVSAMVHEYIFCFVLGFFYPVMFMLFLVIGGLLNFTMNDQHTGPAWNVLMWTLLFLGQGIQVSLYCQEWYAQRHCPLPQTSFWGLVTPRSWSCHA
Method: The ability of representative compounds of the present invention to inhibit ACAT was measured using an in vitro test more fully described in F. J. Field and R. G. Salone, Biochemica et Biophysica 712:557-570 (1982). The test assesses the ability of a test compound to inhibit the acylation of cholesterol by oleic acid by measuring the amount of radiolabeled cholesterol oleate formed from radiolabeled oleic acid in a tissue preparation containing rabbit intestinal microsomes.
The data appear in Table 1 where they are expressed as IC50 values; i.e., the concentration of test compound required to inhibit the activity of the enzyme by 50%.

| Compound | pIC50 |
| --- | --- |
| CC(C)c1cccc(C(C)C)c1OC(=O)NC(=O)NC(c1ccccc1)c1ccccc1 [Example 25, [[(diphenylmethyl)amino]carbonyl]carbamic acid, 2,6-bis(1-methylethyl)phenyl ester] | < 6.00 |

same assay, conditions: rabbit intestinal microsomes, ACAT; read-out: IAI IC50

| Compound | pIC50 |
| --- | --- |
| CC(C)c1cccc(C(C)C)c1NC(=O)NC(=O)Nc1c(C(C)C)cccc1C(C)C [Example 3, N,N'-bis[2,6-bis(1-methylethyl)phenyl]imidodicarbonic diamide] | < 5.30 |
| CC(C)c1cccc(C(C)C)c1NC(=O)NC(=O)N1CCC(c2ccccc2)CC1 [Example 13, N-[[[2,6-bis(1-methylethyl)phenyl]amino]carbonyl]-1-[(4-phenyl)piperidine]carboxamide] | 5.46 |
| CC(C)c1cccc(C(C)C)c1NC(=O)NC(=O)N1CCCC1 [Example 9, N-[[[2,6-bis(1-methylethyl)phenyl]amino]carbonyl]-1-pyrrolidinecarboxamide] | < 5.30 |
| CC(C)c1cccc(C(C)C)c1NC(=O)N(C)C(=O)N(c1ccccc1)c1ccccc1 [Example 1, N'-[2,6-bis(1-methylethyl)phenyl]-2-methyl-N,N-diphenyliminodicarbonic diamide] | 6.22 |
| CC(C)c1cccc(C(C)C)c1NC(=O)NC(=O)N1c2ccccc2CCc2ccccc21 [Example 8, N-[[[2,6-bis(1-methylethyl)phenyl]amino]carbonyl]-10,11-dihydro-5H-dibenz[b,f]azepin-5-carboxamide] | 6.05 |
| CC(C)c1cccc(C(C)C)c1NC(=O)NC(=O)NC(c1ccccc1)c1ccccc1 [Example 2, N-[2,6-bis(1-methylethyl)phenyl)-N'-(diphenylmethyl) iminodicarbonic amide] | < 6.00 |
| CCN(CC)C(=O)NC(=O)Nc1c(C(C)C)cccc1C(C)C [Example 10, N'-[2,6-bis(1-methylethyl)phenyl]-N,N-diethylimidodicarbonic diamide] | < 5.30 |

tested on: not listed separately; assay: In vivo screen APCC: plasma total cholesterol in rats on high fat, high cholesterol diet with 0.5% cholic acid; parameters: species or system male Sprague-Dawley rats; conditions: rat APCC, 30 mg/kg, high fat high cholesterol diet overnight
Description: In one in vivo screen designated APCC, male Sprague-Dawley rats (200 to 225 g) were randomly divided into treatment groups and dosed at 4 PM with either vehicle (CMC/Tween) or suspensions of compounds in vehicle. The norma chow diet was then replaced with a high fat, high cholesterol diet with 0.5% cholic acid. The rats consumed this diet ad libitum during the night and were sacrificed at 8 AM to obtain blood samples for cholesterol analysis using standard procedures. Statistical differences between mean cholesterol values for the same vehicle were determined using analysis of variance followed by Fisher's least significant test. Compounds were dosed at 30 mg/kg unless otherwise noted.

| Compound | % Change in Plasma TC Values (mg/dL) |
| --- | --- |
| CC(C)c1cccc(C(C)C)c1OC(=O)NC(=O)NC(c1ccccc1)c1ccccc1 [Example 25, [[(diphenylmethyl)amino]carbonyl]carbamic acid, 2,6-bis(1-methylethyl)phenyl ester] | No change |

same assay, conditions: rat APCC, 30 mg/kg, high fat high cholesterol diet overnight; read-out: % Change in Plasma TC Values (mg/dL)

| Compound | change in vivo at 30 mg/kg |
| --- | --- |
| CCCCCCCC(C)OC(=O)NC(=O)Nc1c(C(C)C)cccc1C(C)C (racemic) [Example 20, (±)[[[2,6-bis(1-methylethyl)phenyl]amino]carbonyl]carbamic acid, 1-methyloctyl ester] | -24% |
| CC(C)c1cccc(C(C)C)c1NC(=O)NC(=O)Oc1c(C(C)C)cccc1C(C)C [Example 15, [[[2,6-bis(1-methylethyl)phenyl]amino]carbonyl] carbamic acid,2,6-bis(1-methylethyl)phenyl ester] | -9% |
| CCCCCCCCC(C)OC(=O)NC(=O)Nc1c(C(C)C)cccc1C(C)C (racemic) [Example 22, (±)[[[2,6-bis(1-methylethyl)phenyl]amino]carbonyl]carbamic acid, 1-methylnonyl ester] | -22% |
| CCCCCCCCCCCCC(C)(C)OC(=O)NC(=O)Nc1c(C(C)C)cccc1C(C)C [Example 17, [[[2,6-bis(1-methylethyl)phenyl]amino]carbonyl]carbamic acid, 1,1-dimethyltridecyl ester] | -14% |
| CCCCCCCCCCCCCCN(C)C(=O)NC(=O)Nc1c(C(C)C)cccc1C(C)C [Example 14, N'-[2,6-bis(1-methylethyl)phenyl]-N-methyl-N-tetradecylimidodicarbonic diamide] | -8% |
| CCCCCCCCCCCCOC(=O)NC(=O)Nc1c(C(C)C)cccc1C(C)C [Example 18, [[[2,6-bis(1-methylethyl)phenyl]amino]carbonyl]carbamic acid, dodecyl ester] | -38% |
| CCCCCCCCCCCCC(C)OC(=O)NC(=O)Nc1c(C(C)C)cccc1C(C)C (racemic) [Example 24, (±)[[[2,6-bis(1-methylethyl)phenyl]amino]carbonyl]carbamic acid, 1-methyltridecyl ester] | -33% |
| CC(C)c1cccc(C(C)C)c1NC(=O)N(C)C(=O)N(c1ccccc1)c1ccccc1 [Example 1, N'-[2,6-bis(1-methylethyl)phenyl]-2-methyl-N,N-diphenyliminodicarbonic diamide] | -9% |
| CCCCCC(C)OC(=O)NC(=O)Nc1c(C(C)C)cccc1C(C)C (racemic) [Example 21, (±)[[[2,6-bis(1-methylethyl)phenyl]amino]carbonyl]carbamic acid, 1-methylhexyl ester] | -22% |
| CCCCCCCCCCCCCCC(C)OC(=O)NC(=O)Nc1c(C(C)C)cccc1C(C)C (racemic) [Example 23, (±)[[[2,6-bis(1-methylethyl)phenyl]amino]carbonyl]carbamic acid, 1-methylpentadecyl ester] | -26% |
| CCCCCCCCCCC(C)OC(=O)NC(=O)Nc1c(C(C)C)cccc1C(C)C (racemic) [Example 19, (±)[[[2,6-bis(1-methylethyl)phenyl]amino]carbonyl]carbamic acid, 1-methylundecyl ester] | -26% |

same assay, conditions: rat APCC, *Dosed at 50 mg/kg, high fat high cholesterol diet overnight; read-out: % Change in Plasma TC Values (mg/dL)

| Compound | change in vivo at 50 mg/kg |
| --- | --- |
| CC(C)c1cccc(C(C)C)c1NC(=O)NC(=O)N1c2ccccc2Sc2ccccc21 [Example 12, N-[[[2,6-bis(1-methylethyl)phenyl]amino]carbonyl]-10H-phenothiazine-10-carboxamide] | -19% |
| CC(C)c1cccc(C(C)C)c1NC(=O)NC(=O)N(Cc1ccccc1)Cc1ccccc1 [Example 4, N'-[2,6-bis(1-methylethyl)phenyl]-N,N-bis(phenylmethyl)imidodicarbonic diamide] | -13% |
| CC(C)c1cccc(C(C)C)c1NC(=O)NC(=O)N(Cc1ccccc1)C(C)C [Example 11, N'-[2,6-bis(1-methylethyl)phenyl]-N-(1-methylethyl)-N-(phenylmethyl)imidodicarbonic diamide] | -27% |
| CC(C)c1cccc(C(C)C)c1NC(=O)NC(=O)N(c1ccccc1)c1ccccc1 [Example 5, N'-[2,6-bis(1-methylethyl)phenyl]-N,N-diphenylimidodicarbonic diamide] | -40% |
| CC(C)c1cccc(C(C)C)c1NC(=O)NC(=O)N1c2ccccc2CCc2ccccc21 [Example 8, N-[[[2,6-bis(1-methylethyl)phenyl]amino]carbonyl]-10,11-dihydro-5H-dibenz[b,f]azepin-5-carboxamide] | -18% |
| CCCCN(CCCC)C(=O)NC(=O)Nc1c(C(C)C)cccc1C(C)C [Example 7, N'-[2,6-bis(1-methylethyl)phenyl]-N,N-dibutylimidodicarbonic diamide] | -23% |
| CCCCCCCCN(CCCCCCCC)C(=O)NC(=O)Nc1c(C(C)C)cccc1C(C)C [Example 6, N-[2,6-bis(1-methylethyl)phenyl]-N,N-dioctylimidodicarbonic diamide] | -5% |
